Source: patent publication US12077566B2, “Mutants of recombinant immunoregulatory protein of Ganoderma lucidum and applications thereof” (priority 2017, dated 2024)

Experiments:
[1] = system: rLZ-8 internalization in Hep G2 cells; assay: Inhibitor screening of rLZ-8 endocytosis; assay type: cell-based
Protocol: The rLZ-8 is labeled by an Alexa Fluor 568 fluorescent probe; then 10 μg/mL fluorescent labeled rLZ-8 acts on Hep G2 cells for 3 hours; whether the rLZ-8 enters the cell is observed with the ultrahigh resolution imaging system; and obtained images are reconstructed, fitted and further analyzed through an image analysis software of Imaris.
Inhibitors of different internalization ways are selected, respectively EIPA (macropinocytosis inhibitor), Wortmannin/LY294002 (P13K inhibitor), Nystatin+Progesterone (caveolae inhibitor) and Chlorpromazine (clathrin inhibitor); the inhibitors respectively act on the Hep G2 cells, and inhibitory effects of the inhibitors on rLZ-8 endocytosis are observed.

Hep G2 cells = assay: Cell death after rLZ-8 internalization; assay type: cell-based; conditions: 100 μg/mL, 5 hours
From the text: With the ultrahigh resolution imaging system, the whole change process of the cell after the internalization of the rLZ-8 is observed in real time; and, combined with the above researches, the reason why the rLZ-8 causes the tumor cell death is judged.

S180 = conditions: mouse; cited from earlier work
[2] = system: transplanted liver cancer cells H22; conditions: mouse; cited from earlier work
[3] = system: human colon cancer SW480 cells; assay: Transplantation tumor model of human colon cancer SW480 cells; assay type: in vivo, BALB/c nude mice; conditions: after administration for 28 days
Protocol: The RPMI1640 medium containing 10% fetal bovine serum is selected for the human colon cancer SW480 cells, and then is placed in the CO2 constant-temperature incubator at 37° C. for culturing. The SW480 cells at the logarithmic phase are digested by pancreatin and thereafter washed with serum-free RPMI1640 medium; 2×10^6 cells are inoculated below the back skin of the BALB/c nude mice; after the tumor blocks for observation are formed and have the diameter larger than 0.5 cm, the mice are divided into groups randomly; and the transplantation tumor model of human colon cancer SW480 cells are constructed in the BALB/c nude mice.

[4] = system: human lung cancer A549 cells; assay: Orthotopic transplantation tumor model of human lung cancer A549 cells; conditions: after administration for 28 days;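 further: test animals were NOG mice aged 6-8 weeks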
Protocol: The human lung cancer A549 cell strain is selected. The NOG Mice of 6-8 weeks old are selected.
The DMEM containing 10% fetal bovine serum is selected for the human lung cancer A549 cells, and then is placed in the CO2 constant-temperature incubator at 37° C. for culturing. The A549 cells at the logarithmic phase are digested by pancreatin and thereafter washed with serum-free DMEM; the living cell concentration is adjusted to 1×10^8 cells per milliliter; 20 μL cell suspension is taken and inoculated at the lung of the NOG mice; two weeks later, the orthotopic transplantation tumor model of A549 lung cancer cells is constructed in the NOG mice.

[5] = system: human breast cancer MCF7 cells; assay: Orthotopic transplantation tumor model of human breast cancer MCF7 cells; assay type: in vivo, BALB/c nude mice; conditions: after administration for 28 days
Protocol: One day before the experiment, 0.5 mg of 17ß estradiol sustained release tablet is embedded below the neck skin of the BALB/c nude mice.

[6] = system: human liver cancer Hep G2 cells; conditions: for Mice weight after experiment: mouse, in vivo; for Mice tumor weight after experiment / Survival rate of mice after experiment: qd×28 i.v., rLZ-8 and mutants 0.5 mg/kg, sorafenib 50 mg/kg; for Survival rate of mice after experiment: 10 mice per group
From the text: Two weeks later, the model mice are divided into groups randomly, and each group has 10 mice. The administration method is caudal vein injection, once a day, for consecutive 28 days (qd×28, i.v.). […] During the experiment, if the mouse dies, the dead mouse is weighted on the same day, and the tumor tissue is taken out to be weighted. For the living mouse after administration for 28 days, the mouse is killed, and then the tumor tissue is taken out to be weighted. The death time and death number of the mice in each group are recorded in detail; the survival conditions of the mice of the experimental groups and the control groups are analyzed, and the survival rate is calculated, wherein the survival rate is obtained through subtracting the death number of the mice from the total number of the mice, and then dividing the difference by the total number of the mice.

[7] = system: EGFR, c-Met, PDGFR, N-cadherin and LDLR; assay: Immunofluorescence co-localization of rLZ-8 with membrane receptors; assay type: cell-based
Protocol: Considering that the high internalization degree of the rLZ-8 may be caused by the internalization after binding with a receptor on the cytomembrane, the rLZ-8 and the receptor on the cytomembrane are screened. Relationships between the different receptors on the cytomembrane and the tLZ-8 are measured through an immunofluorescence method. Fluorescent labels are made respectively on antibodies of EGFR, c-Met, PDGFR, N-cadherin and LDLR, and co-localization situations thereof with the rLZ-8 are respectively observed.

[8] = target: EGFR extracellular domain (Homo sapiens, UniProt P00533); assay: Affinity test by surface plasmon resonance (Biacore T200, CM5 chip); assay type: binding; conditions: EGFR extracellular domain coupled on CM5 chip, analyte 4-256 nM
Protocol: The Biacore™ T200 equipment (a Surface Plasmon Resonance from GE Company) is selected. Through the surface plasma resonance technology, the affinity of the rLZ-8 and the mutants thereof to the EGFR extracellular domain is tested. The CM5 chip is adopted to serve as the affinity test chip.
The EGFR extracellular domain (with an amino acid sequence of 25-645) serves as the ligand for coupling; 1 mg EGFR freeze-dried powders are diluted with HEPES buffer solution to a concentration of 400 μg/mL and set aside. Three 1.5 mL EP tubes are prepared; 10 μL ligand are respectively added into the three tubes, then 90 μL 10 mM sodium acetate with different pH values of 4.5, 5.0 and 5.5 are respectively added into the tubes and are mixed completely and uniformly; and a final concentration of the ligand is 40 μg/mL. Moreover, 200 μL 50 mM sodium acetate is added into another 1.5 mL EP tube.
The ligand has a molecular weight of 70 kDa, the analyte (rLZ-8) has a molecular weight of 12.4 kDa. In theory, one rLZ-8 […] can bind with one EGFR, and thus the stoichiometric ratio Sm is equal to 1. Through the following equations, the coupling amount RL of the ligand is calculated.
Through the experimental experience, the optimal reagent coupling amount is set to be 3*RL, and the coupling amount is set to be 1700 RU. The EGFR extracellular domain is successively coupled on the CM5 chip. […]

Molecule: mβCD
- Inhibition of internalization efficiency of the rLZ-8 [1]: 50%

Molecule: CCN(c1nc(N)c(C(=O)NC(=N)N)nc1Cl)C(C)C [EIPA]
- Inhibitory effect on rLZ-8 internalization (in words) ([1]; Hep G2 cells): effectively inhibits the internalization of the rLZ-8

Molecule: rLZ-8: recombinant immunoprotein of Ganoderma lucidum, sequence SEQ ID NO: 1, expressed in Pichia pastoris
- Cell death (in words) (Hep G2 cells): shrinkage, burst and death of Hep G2 cells happen
- In vivo tumor growth (in words) (S180): can inhibit the in vivo growth
- In vivo tumor growth (in words) [2]: can inhibit the in vivo growth
- Mice tumor weight after experiment [3]: 1.94 ± 0.43 g
- Mice survival rate after experiment [4]: 50%
- Mice tumor weight after experiment [4]: 0.60 ± 0.45 g
- Mice weight after experiment [4]: 20.8 ± 1.5 g
- Mice tumor weight after experiment [5]: 0.74 ± 0.35 g
- In vivo half-life period (in words) (In vivo half-life period): relatively short in vivo half-life period
- Mice weight after experiment [6]: 19.8 ± 1.4 g
- Mice tumor weight after experiment [6]: 0.62 ± 0.53 g
- Survival rate of mice after experiment [6]: 60%
- Co-localization with other internalization-related membrane receptors (in words) [7]: no co-localization phenomenon
- Co-localization with the EGFR (in words) [7]: high-degree co-localization phenomenon
- Dissociation rate constant (koff) [8]: 0.000583 s⁻¹
- Ka [8]: 63400 M⁻¹ s⁻¹

Molecule: CNC(=O)c1cc(Oc2ccc(NC(=O)Nc3ccc(Cl)c(C(F)(F)F)c3)cc2)ccn1 [Sorafenib, sorafenib, reference compound]
- Mice weight after experiment [6]: 19.6 ± 1.6 g
- Mice tumor weight after experiment [6]: 0.82 ± 0.37 g
- Survival rate of mice after experiment [6]: 50%
